By IC50 is commonly meant the point on the concentration scale where inhibition reaches its midpoint.

Read-outs that look alike come from different tables or passages of the source.

Test [1] deals with primary mouse CD4^+ T cells. In words: MTS proliferation assay. To be noted: for IC50: Mus musculus, CD4+ T; for reversal of TGFβ-mediated inhibition of T cell proliferation (in words): mouse CD4^+ T cells, 1 nM TGF-β1. The test is classed as cell-based. The protocol:
Compounds A-D were tested to determine whether they could inhibit TGF-β signaling in primary mouse CD4^+ T cells.
Primary mouse CD4^+ T cells were isolated from the spleens of C57/B6 mice using the RoboSep™ cell isolation system (Stemcell Technologies). 0.5 μg/ml of hamster anti-mouse CD3e antibody (145-2C11; eBioscience) was coated onto a 96 well flat bottom plate overnight. 1×10^5 purified CD4^+ T cells were incubated with 1 μg/ml soluble hamster anti-mouse CD28 antibody (37.51, BD Biosciences), 1 nM TGF-β1 and 8-fold serial dilutions of Compounds A-D. After 72 hours, cell proliferation was measured using an MTS assay (Promega) in accordance with the manufacturer's instructions.

Test [2] concerns TGF-β-induced luciferase activity in HEK293T cells. In words: TGF-β-induced SMAD luciferase reporter assay in HEK293T cells. The test is classed as cell-based. To be noted: Homo sapiens, HEK-293T, 24 hours. The protocol: Compounds A-D were tested to determine whether they could inhibit TGF-β-induced luciferase activity in HEK293T cells in vitro.
30,000 HEK293T cells were seeded in a 96 well white flat bottom plate overnight. The next day 100 ng of a SMAD luciferase reporter plasmid per well was transfected into the cells using lipofectamine for 24 hours. The next day cells were treated with Compounds A-D and […] TGFβ for 24 hours. Luciferase activity was measured using the Dual-Glo® luciferase assay kit (Promega). The assay was run twice for Compounds A, B, and D, and three times for Compound C.
In general terms: In a reporter assay the amount or activity of a reporter protein is the signal.

Test [3] deals with Mouse CTLL2 cells. Put plainly: CTLL2 proliferation assay (BrdU ELISA). The class given is cell-based. How it is done: Mouse CTLL2 cells were cultured at 1×10^5 cells/well in 0.2 ng/ml IL2. To each well as indicated 1 nM TGF-β, 1 μg/ml ADC, and/or 100 nM ALK5 inhibitor Compound C was added to the wells for 24 hours. Proliferation was quantitated via addition of the BrdU reagent (Abcam) to each well for another 12 hours and then analyzed by ELISA.
For orientation: Dividing cells build labelled thymidine or BrdU into new DNA.

The subject of test [4] is GzmB expression in primary CD8^+ T cells. In words: Granzyme B expression assay. The class given is cell-based, mouse. The following applies: 1 nM TGF-β, ADC1 at DARs 2-4, 4-6 and 6-8, flow cytometry. The protocol: Mouse CD3^+ T cells were purified from mouse spleens using the EasySep™ Mouse T cell isolation kit (negative selection) (Stemcell Technologies). CD3^+ T cells were activated as before using plate bound antiCD3e and soluble anti-CD28 for 48 hours. T cells were washed and re-plated in media with 5% serum plus 1 nM TGF-β−/+ADC.
Golgi stop reagent was added for the last 4 hours and then the cells were immunostained for surface CD8 (BD) and intracellular GzmB (eBioscience) and analyzed via flow cytometry. Granzyme B (GzmB) is a serine protease released by CD8^+ T cells to kill tumor cells. Thus, increased expression of GzmB is indicative of CD8^+ cytotoxic T cell activation.
Background: Flow cytometry measures light scatter and fluorescence of single cells or particles in a stream.

Test [5] concerns Naïve CD4 T cells (iTreg FoxP3 expression). In words: iTreg conversion assay. The test is classed as cell-based, mouse. The protocol:
Naïve CD4 T cells were isolated from isolated mouse spleenocytes using a negative selection kit. The cell density was adjusted to 0.4×10^6 cells/ml, and 10 ng/ml of mouse IL-2, 20 ng/ml of TGF-β, and 1 μg/ml of soluble anti-CD28 was added to the cell suspension.
Anti-mouse CD3 antibody at 10 μg/ml was coated on a 24 well plate and incubated at 4° C. overnight. The antibody was then aspirated from the plate. 1 ml of the cell suspension was added to each well of the 24 well plate. ADC1 (DAR 4-6) at 3 μg/ml and 5 μg/ml, anti-transferrin receptor antibody, rat anti-mouse IgG2A isotype control ALK5 ADC, and ALK5 inhibitor Compound C at 100 nM and 1 μM were added to separate wells of the 24 well plate. The cells were then cultured for 72 hours. TfR expression was tested at 48 hours (data not shown). Cells were stained for FoxP3 (eBioscience FoxP3 staining buffer) and sorted by FACS at 72 hours.

The mark [6] stands for this setting: Experiment 1, anti-CD3e/anti-CD28, 1 nM TGF-β1, 72 hours.
Setting [7] is: Experiment 2, anti-CD3e/anti-CD28, 1 nM TGF-β1, 72 hours, read-out: Experiment 2 IC50.
Where [8] appears, read: Experiment 1, 100 μM TGFβ, read-out: Experiment 1 IC50.
Where [9] appears, read: Experiment 2, 100 μM TGFβ, read-out: Experiment 2 IC50.
The mark [10] stands for this setting: Experiment 1, anti-CD3e/anti-CD28, 1 nM TGF-β1, 72 hours, read-out: Experiment 1 IC50.

Consider `Cc1cccc(-c2nc(N)sc2-c2ccc3ncccc3n2)n1` [Compound A, 4-(6-methylpyridin-2-yl)-5-(1,5-naphthyridin-2-yl)thiazol-2-amine], for which the “Experiment 1 IC50” value in test [1] (setting [6]) was “Value not obtained”. Further, the values for the concentration for half-maximal inhibition (IC50) in test [1] (setting [7]), in test [2] (setting [8]) and in test [2] (setting [9]) were 153 nM, 18.7 nM and 29.8 nM, respectively. In addition, the “reversal of TGFβ-mediated inhibition of T cell proliferation (in words)” value in test [1] is on record as “did not show consistent effects”.

Take `CNCCOc1ccc(-c2cc(-c3c[nH]nc3-c3ccccn3)ccn2)cc1` [Compound B, N-methyl-2-(4-(4-(3-(pyridin-2-yl)-1H-pyrazol-4-yl)pyridin-2-yl)phenoxy)ethan-1-amine]: the IC50 in test [1] (setting [10]) is 60 nM; in test [1] (setting [7]) it was 34 nM; in test [2] (setting [8]) it was 51.8 nM; in test [2] (setting [9]) it was 11.3 nM. Moreover, in test [1], the “reversal of TGFβ-mediated inhibition of T cell proliferation (in words)” value was “reversed TGFβ-mediated inhibition of T cell proliferation”.

`CNCCOc1ccc(-c2cc(-c3c[nH]nc3-c3cccc(C)n3)ccn2)cc1` [Compound C, N-methyl-2-(4-(4-(3-(6-methylpyridin-2-yl)-1H-pyrazol-4-yl)pyridin-2-yl)phenoxy)ethan-1-amine]: the IC50 amounted to 20 nM in test [1] (setting [10]); 33 nM in test [1] (setting [7]); 10.1 nM in test [2] (setting [8]); 21.2 nM in test [2] (setting [9]); 13.2 nM in test [2] (Experiment 3, 100 μM TGFβ, read-out: Experiment 3 IC50). The “reversal of TGFβ-mediated inhibition of T cell proliferation (in words)” value in test [1] is recorded as “reversed TGFβ-mediated inhibition of T cell proliferation”. Further, the “restoration of CTLL2 proliferation in presence of TGF-β” value in test [3] (100 nM ALK5 inhibitor Compound C, 1 nM TGF-β, 24 hours) was “almost complete reversal of TGF-β inhibition and restoration of CTLL2 proliferation”. Moreover, the figures for the “restoration of GzmB expression” value in test [4] (listed as ALK5 compound) and in test [4] (listed as free ALK5 inhibitor) were “restore GzmB expression” and “partially restores Granzyme B expression”, respectively. Further, the “amount of iTreg generated” value in test [5] (100 nM free ALK5 inhibitor, 20 ng/ml TGF-β, 72 hours) was “modestly decreased the amount of iTreg generated”. In addition, the iTreg generation entry in test [5] (100 nM of free ALK5 inhibitor (FIG. 12 legend)) is “decreases iTreg generation”.

Turning to `CCNC(=O)c1ccc2c(c1)NC(=O)/C2=C(\Nc1ccc(N(CCNC)S(C)(=O)=O)cc1)c1ccccc1` [Compound D, (Z)-N-ethyl-3-(((4-(N-(2-(methylamino)ethyl)methylsulfonamido)phenyl)amino)(phenyl)methylene)-2-oxoindoline-6-carboxamide], the “Experiment 1 IC50” value in test [1] (setting [6]) is listed as “Value not obtained”. Further, the “Experiment 2 IC50” value in test [1] (Experiment 2, anti-CD3e/anti-CD28, 1 nM TGF-β1, 72 hours) is “Value not obtained”. Further, the “reversal of TGFβ-mediated inhibition of T cell proliferation (in words)” value in test [1] is recorded as “an IC50 value was not obtained”. Further, the half-inhibitory concentration (IC50) was determined as 1070 nM in test [2] (setting [8]) and 1520 nM in test [2] (setting [9]).

For TGF-β, the “inhibition of CTLL2 proliferation” value in test [3] (1 nM TGF-β alone) is recorded as “approximately 60%”.

(Values after patent publication US12473377B2, “Antibody-ALK5 inhibitor conjugates and their uses” (Synthis Therapeutics, Inc., priority 2016, dated 2025).)
